Toxic doses and inconclusive results are not listed.
System: CD2F1 mice, L1210 leukemia ip, survival T/C
Experiment: NCI In Vivo Anticancer Drug Screen. Data for tumor model L1210 Leukemia (intraperitoneal) in CD2F1 (CDF1) mice
Settings: higher = longer survival
In short: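 Vehicle-treated tumor-bearing mice served as controls (C) for compound-treated mice (T). Reported figure is T divided by C.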

[1] = endpoint: mean survival time, dose: 100.0 mg/kg/injection, schedule: Q01DX001 (ip), vehicle: saline with Tween-80
[2] = endpoint: mean survival time, dose: 200.0 mg/kg/injection, schedule: Q01DX001 (ip), vehicle: saline with Tween-80
[3] = endpoint: mean survival time, dose: 400.0 mg/kg/injection, schedule: Q01DX001 (ip), vehicle: saline with Tween-80
[4] = endpoint: mean survival time, dose: 100.0 mg/kg/injection, schedule: Q01DX009 (ip), vehicle: Klucel (hydroxypropylcellulose) (HPC)
[5] = endpoint: mean survival time, dose: 200.0 mg/kg/injection, schedule: Q01DX009 (ip), vehicle: Klucel (hydroxypropylcellulose) (HPC)
[6] = endpoint: mean survival time, dose: 100.0 mg/kg/injection, schedule: Q01DX009 (ip), vehicle: saline with Tween-80
[7] = endpoint: mean survival time, dose: 200.0 mg/kg/injection, schedule: Q01DX009 (ip), vehicle: saline with Tween-80
[8] = endpoint: mean survival time, dose: 400.0 mg/kg/injection, schedule: Q01DX009 (ip), vehicle: saline with Tween-80

Q: How did the T/C (endpoint: mean survival time, dose: 100.0 mg/kg/injection, schedule: Q04DX002 (ip), vehicle: saline) turn out when `NC(=S)c1ncn(C2OC(CO)C(O)C2O)c1N` (stereo unspecified) was run?
A: 115 % of control

Q: What about the T/C (endpoint: mean survival time, dose: 200.0 mg/kg/injection, schedule: Q04DX002 (ip), vehicle: saline) of the same compound?
A: 110 % of control

Q: What about the T/C (endpoint: median survival time, dose: 25.0 mg/kg/injection, schedule: Q01DX005 (ip), vehicle: saline with Tween-80) of the same compound?
A: 111 % of control

Q: And the T/C (endpoint: median survival time, dose: 25.0 mg/kg/injection, schedule: Q01DX005 (ip), vehicle: saline)?
A: 113 % of control

Q: What about the T/C (endpoint: median survival time, dose: 25.0 mg/kg/injection, schedule: Q01DX009 (ip), vehicle: saline with Tween-80) of the same compound?
A: 122 % of control

Q: What about the T/C (endpoint: median survival time, dose: 25.0 mg/kg/injection, schedule: Q01DX009 (ip), vehicle: saline) of the same compound?
A: 115 % of control

Q: And the T/C (endpoint: median survival time, dose: 50.0 mg/kg/injection, schedule: Q01DX005 (ip), vehicle: saline with Tween-80)?
A: 120 % of control

Q: And the T/C (endpoint: median survival time, dose: 100.0 mg/kg/injection, schedule: Q01DX005 (ip), vehicle: saline)?
A: 166 % of control

Q: What about the T/C (endpoint: median survival time, dose: 100.0 mg/kg/injection, schedule: Q01DX009 (ip), vehicle: saline with Tween-80) of the same compound?
A: 160 % of control

Q: And the T/C (endpoint: median survival time, dose: 200.0 mg/kg/injection, schedule: Q01DX005 (ip), vehicle: saline with Tween-80)?
A: 171 % of control

Q: And the T/C (endpoint: median survival time, dose: 200.0 mg/kg/injection, schedule: Q01DX005 (ip), vehicle: saline)?
A: 166 % of control

Q: And the T/C (endpoint: median survival time, dose: 200.0 mg/kg/injection, schedule: Q01DX009 (ip), vehicle: saline with Tween-80)?
A: 159 % of control

Q: And the T/C (endpoint: median survival time, dose: 200.0 mg/kg/injection, schedule: Q01DX009 (ip), vehicle: saline)?
A: 157 % of control

Q: And the T/C (endpoint: median survival time, dose: 400.0 mg/kg/injection, schedule: Q01DX005 (ip), vehicle: saline with Tween-80)?
A: 161 % of control

Q: What about the T/C (endpoint: median survival time, dose: 400.0 mg/kg/injection, schedule: Q01DX005 (ip), vehicle: saline) of the same compound?
A: 180 % of control

Q: What about the T/C (endpoint: median survival time, dose: 400.0 mg/kg/injection, schedule: Q01DX009 (ip), vehicle: saline with Tween-80) of the same compound?
A: 160 % of control

Q: What about the T/C (endpoint: median survival time, dose: 400.0 mg/kg/injection, schedule: Q01DX009 (ip), vehicle: saline) of the same compound?
A: 155 % of control

Q: What does the source list for `Fc1ccc(NC2(c3nnnn3C3CCCCC3)CCN(Cc3ccccc3)CC2)cc1`?
A: T/C [1]: 95 % of control; T/C [2]: 102 % of control; T/C [3]: 101 % of control

Q: With `COc1cc2c(cc1OC)-c1ccc3cc4c(cc3c1N(C)C2)OCO4` as the compound, how does the T/C (endpoint: mean survival time, dose: 5.0 mg/kg/injection, schedule: Q01DX009 (ip), vehicle: water) read?
A: 106 % of control

Q: And the T/C (endpoint: mean survival time, dose: 10.0 mg/kg/injection, schedule: Q01DX009 (ip), vehicle: water)?
A: 105 % of control

Q: What about the T/C (endpoint: mean survival time, dose: 20.0 mg/kg/injection, schedule: Q01DX009 (ip), vehicle: water) of the same compound?
A: 105 % of control

Q: What about the T/C (endpoint: mean survival time, dose: 40.0 mg/kg/injection, schedule: Q01DX009 (ip), vehicle: water) of the same compound?
A: 108 % of control

Q: And the T/C (endpoint: mean survival time, dose: 80.0 mg/kg/injection, schedule: Q01DX009 (ip), vehicle: water)?
A: 103 % of control

Q: For `CCOC(=O)C(CO)NC(=O)C[NH-].CCOC(=O)C(CO)NC(=O)C[NH-].[Cl][Pt+2][Cl]` (stereo unspecified), which T/C (endpoint: mean survival time, dose: 100.0 mg/kg/injection, schedule: Q04DX003 (ip), vehicle: saline) is on record?
A: 111 % of control

Q: And the T/C (endpoint: mean survival time, dose: 200.0 mg/kg/injection, schedule: Q04DX003 (ip), vehicle: saline)?
A: 111 % of control

Q: What about the T/C (endpoint: mean survival time, dose: 400.0 mg/kg/injection, schedule: Q04DX003 (ip), vehicle: saline) of the same compound?
A: 114 % of control

Q: `O=c1[nH]c(=O)n(C2CC(O)C(CO)O2)cc1S` (stereo unspecified) was tested. Which T/C (endpoint: mean survival time, dose: 12.5 mg/kg/injection, schedule: Q01DX005 (ip), vehicle: water) did it give?
A: 107 % of control

Q: What about the T/C (endpoint: mean survival time, dose: 25.0 mg/kg/injection, schedule: Q01DX005 (ip), vehicle: water) of the same compound?
A: 117 % of control

Q: What about the T/C (endpoint: mean survival time, dose: 50.0 mg/kg/injection, schedule: Q01DX005 (ip), vehicle: water) of the same compound?
A: 112 % of control

Q: What about the T/C (endpoint: mean survival time, dose: 100.0 mg/kg/injection, schedule: Q01DX005 (ip), vehicle: water) of the same compound?
A: 122 % of control

Q: And the T/C (endpoint: mean survival time, dose: 133.0 mg/kg/injection, schedule: Q01DX005 (ip), vehicle: water)?
A: 121 % of control

Q: What about the T/C (endpoint: mean survival time, dose: 200.0 mg/kg/injection, schedule: Q01DX005 (ip), vehicle: water) of the same compound?
A: 111 % of control

Q: And the T/C (endpoint: mean survival time, dose: 300.0 mg/kg/injection, schedule: Q01DX005 (ip), vehicle: water)?
A: 115 % of control

Q: Which T/C (endpoint: mean survival time, dose: 25.0 mg/kg/injection, schedule: Q01DX009 (ip), vehicle: Klucel (hydroxypropylcellulose) (HPC)) does the source give for `NP(=O)(OCCC(=O)OCc1ccccc1)N(CCCl)CCCl` (stereo unspecified) here?
A: 97 % of control

Q: What about the T/C (endpoint: mean survival time, dose: 50.0 mg/kg/injection, schedule: Q01DX009 (ip), vehicle: Klucel (hydroxypropylcellulose) (HPC)) of the same compound?
A: 92 % of control

Q: What about the T/C [4] of the same compound?
A: 91 % of control

Q: What about the T/C (endpoint: mean survival time, dose: 125.0 mg/kg/injection, schedule: Q01DX001 (ip), vehicle: Klucel (hydroxypropylcellulose) (HPC)) of the same compound?
A: 95 % of control

Q: What about the T/C [5] of the same compound?
A: 94 % of control

Q: And the T/C (endpoint: mean survival time, dose: 250.0 mg/kg/injection, schedule: Q01DX001 (ip), vehicle: Klucel (hydroxypropylcellulose) (HPC))?
A: 93 % of control

Q: And the T/C (endpoint: mean survival time, dose: 400.0 mg/kg/injection, schedule: Q01DX009 (ip), vehicle: Klucel (hydroxypropylcellulose) (HPC))?
A: 97 % of control

Q: And the T/C (endpoint: mean survival time, dose: 500.0 mg/kg/injection, schedule: Q01DX001 (ip), vehicle: Klucel (hydroxypropylcellulose) (HPC))?
A: 98 % of control

Q: What about the T/C (endpoint: mean survival time, dose: 1000.0 mg/kg/injection, schedule: Q01DX001 (ip), vehicle: Klucel (hydroxypropylcellulose) (HPC)) of the same compound?
A: 95 % of control

Q: Which results are given for `c1ccc2sc(SCCSc3nc4ccccc4s3)nc2c1`?
A: T/C (endpoint: mean survival time, dose: 25.0 mg/kg/injection, schedule: Q04DX002 (ip), vehicle: saline with Tween-80): 107 % of control; T/C (endpoint: mean survival time, dose: 100.0 mg/kg/injection, schedule: Q04DX002 (ip), vehicle: saline with Tween-80): 88 % of control; T/C (endpoint: mean survival time, dose: 200.0 mg/kg/injection, schedule: Q04DX002 (ip), vehicle: saline with Tween-80): 87 % of control; T/C (endpoint: mean survival time, dose: 400.0 mg/kg/injection, schedule: Q04DX002 (ip), vehicle: saline with Tween-80): 87 % of control

Q: With `Clc1cccc(N=Cc2ccc3c(c2)OCO3)c1Cl` as the compound, how does the T/C (endpoint: mean survival time, dose: 100.0 mg/kg/injection, schedule: Q01DX001 (ip), vehicle: Klucel (hydroxypropylcellulose) (HPC)) read?
A: 100 % of control

Q: What about the T/C (endpoint: mean survival time, dose: 200.0 mg/kg/injection, schedule: Q01DX001 (ip), vehicle: Klucel (hydroxypropylcellulose) (HPC)) of the same compound?
A: 97 % of control

Q: And the T/C (endpoint: mean survival time, dose: 400.0 mg/kg/injection, schedule: Q01DX001 (ip), vehicle: Klucel (hydroxypropylcellulose) (HPC))?
A: 103 % of control

Q: Which T/C [4] does the source give for `CCCC(=O)Nc1ccn(C2OC(COC(=O)CCC)C(OC(=O)CCC)C2OC(=O)CCC)c(=O)n1` (stereo unspecified) here?
A: 112 % of control

Q: What about the T/C [5] of the same compound?
A: 114 % of control

Q: What does the source list for `F/C(=C\c1ccccc1)c1ccccc1`?
A: T/C (endpoint: mean survival time, dose: 50.0 mg/kg/injection, schedule: Q01DX001 (ip), vehicle: saline with Tween-80): 110 % of control; T/C [1]: 108 % of control; T/C [2]: 101 % of control

Q: For `CC(S(N)(=O)=O)S(N)(=O)=O`, which T/C [1] is on record?
A: 105 % of control

Q: And the T/C [2]?
A: 102 % of control

Q: And the T/C [3]?
A: 94 % of control

Q: Which results are given for `CC1OC(n2ncc(=O)[nH]c2=O)C(O)C(O)C1O` (stereo unspecified)?
A: T/C (endpoint: mean survival time, dose: 12.5 mg/kg/injection, schedule: Q01DX005 (ip), vehicle: distilled water + Tween-80): 105 % of control; T/C (endpoint: mean survival time, dose: 25.0 mg/kg/injection, schedule: Q01DX005 (ip), vehicle: distilled water + Tween-80): 100 % of control; T/C (endpoint: mean survival time, dose: 50.0 mg/kg/injection, schedule: Q01DX005 (ip), vehicle: distilled water + Tween-80): 103 % of control; T/C (endpoint: mean survival time, dose: 100.0 mg/kg/injection, schedule: Q01DX005 (ip), vehicle: distilled water + Tween-80): 103 % of control; T/C (endpoint: mean survival time, dose: 200.0 mg/kg/injection, schedule: Q01DX005 (ip), vehicle: distilled water + Tween-80): 107 % of control

Q: With `NCCCCCCN=C(N)C(N)=NCCCCCCN` as the compound, how does the T/C (endpoint: mean survival time, dose: 3.13 mg/kg/injection, schedule: Q04DX002 (ip), vehicle: saline) read?
A: 116 % of control

Q: What about the T/C (endpoint: mean survival time, dose: 6.25 mg/kg/injection, schedule: Q04DX002 (ip), vehicle: saline) of the same compound?
A: 90 % of control

Q: What about the T/C (endpoint: mean survival time, dose: 12.5 mg/kg/injection, schedule: Q04DX002 (ip), vehicle: saline) of the same compound?
A: 101 % of control

Q: Which T/C [6] does the source give for `COc1ccc(/C=N\NC(=O)c2ccccc2)cc1` here?
A: 95 % of control

Q: What about the T/C [7] of the same compound?
A: 95 % of control

Q: What about the T/C [8] of the same compound?
A: 86 % of control

Q: Which results are given for `COc1ccc(-c2ccc(-c3ccc(S(=O)(=O)c4ccc(-c5ccc(-c6ccc(OC)cc6)cc5)c(N)c4)cc3N)cc2)cc1`?
A: T/C [6]: 110 % of control; T/C [7]: 89 % of control; T/C [8]: 89 % of control

Q: How did the T/C [1] turn out when `O=c1c2ccccc2sc2ccc3ccccc3c12` was run?
A: 106 % of control

Q: And the T/C [2]?
A: 101 % of control

Q: What about the T/C [3] of the same compound?
A: 101 % of control

Source: PubChem BioAssay AID256 (DTP/NCI, 2004)
